Measured values: patent US8791105B2, “Methods for alleviating chronic pain and improving performance of cattle undergoing dehorning or castration” (Kansas State University Research Foundation, priority 2010, dated 2014)

Tests used:
[1] = system: calves with induced lameness; experiment: Visual lameness score (Sprecher scale) in induced lameness; type: in vivo, British x Continental beef calves; settings: 5-point scale; p=0.03
Experimental: After acclimatization, lameness was induced as previously described (Kotschwar et al, 2009). More specifically, chemical synovitis/arthritis was induced with an injection of 20 mg amphotericin B (X-Gen Pharmaceuticals, Inc, Big Flats, N.Y.) into the left hind distal interphalangeal joint of each calf (Period 2). All calves were first restrained in a chute with a head gate as conducted through the acclimatization period, and the hind leg was restrained with ropes at the fetlock and stifle. After restraint, the appropriate hindlimb lateral digit pastern region was prepared with close clipping of hair (No. 40 clipper blade) and aseptic skin preparation using povidone iodine scrub and 70% isopropyl alcohol swabs, followed by injection of the amphotericin B. Amphotericin B is a polyene antibiotic that produces a controlled, mild to moderately severe synovitis/arthritis of short duration. […]
Animal activity was assessed continuously with pedometers.
Lameness scores were determined twice daily to document presence of lameness and to visually score severity of lameness. […] Intra-observer variability was assessed periodically by randomly selecting calves for repeated assessment to ensure consistency of scoring. […] Each lameness score was determined by watching the calf walk a minimum of 20 meters in a straight line, turn, and walk 20 meters back to the starting point.

[2] = system: Bovine Respiratory Disease (BRD); experiment: Incidence of Bovine Respiratory Disease in bulls following castration (Example 3); type: in vivo, bull calves; settings: oral 1 mg/kg prior to castration
Description: The benefits of this are reduced morbidity, reduced drug costs and improved performance.

[3] = Pen-level performance (ADG, DMI, G:F) of bulls castrated on arrival and steers (Example 4); type: in vivo, cross-bred beef calves; settings: for ADG: pen-level mean estimate
Experimental: This study was designed as a stratified 2-arm parallel trial. […] Calves were maintained on open pens that consisted of a combination of concrete aprons and dirt pens. […] Upon arrival, calves were unloaded and sorted (d 0).
Processing and surgical castration was performed by the same operator to minimize variation in procedure. […] Briefly, the scrotum of each calf was cleaned with dilute chlorohexidine disinfectant and incised longitudinally with a Newberry knife (Jorgensen Lab, Loveland, Colo.). The testes and spermatic cords were exteriorized by blunt dissection and the cremaster was broken using manual traction. The spermatic cords were cut using a White's Double Crush emasculator (Jorgensen Lab, Loveland, Colo.) applied for approximately 30 seconds. Steers were subjected to the same handling procedures apart from knife cutting and castration.
After processing, calves were sorted into study pens. Calves from each load were ranked by BW and systematically allocated to pens based upon weight, gonadal status, and treatment group. For each of the 3 loads, 2 pens were assigned to each of the 4 treatment groups for a total of 24 pens. After allocation each pen contained 8 to 14 calves of the same treatment subclass: 6 pens of 10 to 14 calves in the CONT-CAST group, 6 pens of 10 to 14 calves in the MEL-CAST group, 6 pens of 8 to 10 calves in the […] group and 6 pens of 8 to 11 calves in the MEL-STR group. All pens were 12 m×16 m with 12 m of bunk space and one water source per pen. Calves were reweighed on day 14. Additionally, calves were revaccinated with the viral respiratory vaccine (Pyramid 5+ Presponse SQ, Fort Dodge Animal Health, Wyeth, Madison, N.J.) and given a pour-on eprinomectin at 500 μg/kg BW (Eprinex, Merial Limited, Duluth, Ga.) at this time. Final BW was obtained at the end of the study on day 28.
All animals were individually weighed on arrival (day 0), prior to feeding at revaccination on day 14, and at the end of the study on day 28. Conditions were standardized for all animals at each time point. Feed consumption for each pen was determined on a daily basis by subtracting the weight of feed remaining at the next feeding from the total feed weight assigned to the pen. When animals were removed for health reasons, the amount of feed delivered to the pen and the corresponding animal gain in the pen were adjusted accordingly so that calculations for ADG, DMI and corresponding G:F were based on the number of calves remaining in the pen. Animal health data recorded for each calf identified as sick included the pull date, the individual animal identification number, body temperature, clinical score, a presumptive diagnosis, BW, and treatment.
The ancillary production variables (ADG, days on feed [DOF], and daily DMI) were calculated for all animals that completed the feeding period.
A general linear mixed model was fit to each performance response (DMI, ADG, G:F ratio) measured at the pen level. […] Random effects fit on the linear predictor included Lot as a blocking factor. Repeated observations within a pen were modeled using a compound symmetry residual variance-covariance structure. For DMI, the residual variance-covariance was expanded to accommodate heterogeneous variances at each time period. […] Newton-Raphson with ridging was the estimation algorithm implemented.

[4] = Average daily weight gain after dehorning; type: in vivo, Holstein calves; settings: 0.5 mg/kg IV
Experimental: Food and water was not withheld prior to each weighing, which also occurred at approximately the same time each day. Average daily gain (ADG) was calculated by subtracting the pre-dehorning weight from the post-dehorning weight and dividing this by the number of days that passed between weigh dates.
Analysis of variance (ANOVA) was employed to evaluate differences in single measurement, normally distributed data (ADG, Cmax, and AUEC) and the Kruskal-Wallis Test was used to analyze non-parametric data (Tmax). Statistical significance was designated a priori at p<0.05.

[5] = bulls (castrated), 1 mg/kg per os 24 h prior, d1-14
[6] = bulls (castrated), 1 mg/kg per os 24 h prior, d15-28
[7] = steers, 1 mg/kg per os 24 h prior to processing, d1-14
[8] = steers, 1 mg/kg per os 24 h prior to processing, d15-28

In the case of `Cc1cnc(NC(=O)C2=C(O)c3ccccc3S(=O)(=O)N2C)s1` [meloxicam, 4-hydroxy-2-methyl-N-(5-methyl-2-thiazolyl)-2H-1,2-benzothiazine-3-carboxamide-1,1-dioxide], the “visual lameness score vs PLBO” value [1] is reported as “Significantly more PLBO calves had a visual lameness score of 3 and 4”, the “incidence of Bovine Respiratory Disease (BRD)” value ([2]; bulls) is reported as 10.3% and the “odds of developing BRD in bulls not receiving meloxicam vs bulls receiving meloxicam” value [2] is reported as 2.5 times greater. For the same compound, the DMI [3, 5] was 4.80 kg, the “G:F” value [3, 5] was 0.19 and the ADG [3, 5] was 0.95 kg. The DMI [3, 6] was 7.01 kg, the “G:F” value [3, 6] was 0.21 and the ADG [3, 6] was 1.50 kg. The DMI [3, 7] was 5.06 kg, the “G:F” value [3, 7] was 0.30 and the ADG [3, 7] was 1.51 kg. For the same compound, the DMI [3, 8] was 7.23 kg, the “G:F” value [3, 8] was 0.20 and the ADG [3, 8] was 1.46 kg. For the same compound, the “effect of meloxicam administration on DMI” value ([3]; vs placebo, p=0.73) was “no evidence of an effect”, the “effect of meloxicam administration on G:F” value ([3]; vs placebo, p=0.73) was “no evidence of an effect” and the “effect of meloxicam administration on ADG” value ([3]; vs placebo, p=0.972) was “no evidence of an effect”. For the same compound, the “average daily gain in body weight” value ([4]; over 6 days post dehorning, p=0.091 vs placebo) was 2.42 ± 0.52 kg/day and the “average daily gain in body weight” value ([4]; over 10 days post-dehorning, p=0.0418 vs placebo) was 1.05 ± 0.13 kg/day.
